Results reported in patent publication US5567722A, “Cyanoguanidines as K-channel blockers” (The Upjohn Company, priority 1995, dated 1996).
Read-outs that look alike come from different tables or passages of the source.

Columns and labels:
[1] = test system: K+ channel of rabbit mesenteric artery (RMA); test: K+ channel antagonism: inhibition of pinacidil-induced relaxation of norepinephrine-contracted rabbit mesenteric artery (RMA) rings; assay type: cell-based
Procedure: The results for potassium channel blocking were obtained by using isolated rabbit mesenteric artery (RMA) procedures. Norepinephrine (5 μM) was used to contract the RMA rings twice, with an hour separating the two contractions. During this hour the tissues equilibrated in physiological salt solution at a resting tension of 1 gram. Upon the plateau of the second contraction 1 μM pinacidil was added to all tissues and the resulting relaxation time course was studied for thirty minutes. […] By studying the ability of the test compounds to inhibit this pinacidil-induced relaxation, the degree of potassium antagonism could be determined. The compounds were applied to the tissues for one hour between the two contractions and the pinacidil-induced relaxation was studied in the continuing presence of the compounds. Thus, the total time of pretreatment with the test compound was 75 minutes before the addition of pinacidil. […]
Data for K^+ channel antagonist activity on rabbit mesenteric artery (RMA) and natriuretic efficacy after […] (IP) administration to rats are collected in Tables III and IV. It was known, for example, that a compound where both methyl groups on the benzylic carbon of Example 9 had been removed was a weak PCO rather than a K^+ channel antagonist. Similarly a compound in which the phenyl was attached directly to the guanidine nitrogen was also a K^+ channel agonist.
^a This is a measure of a compound's ability to inhibit the relaxatio
of norepinephrine (5 μM) contracted rabbit mesenteric artery rings by
pinacidil (1 μM). It is expressed as percent inhibition (mean ± sem
at an inhibitor concentration of 5 μM. Compounds with 65% or g greater
inhibition at 5 μM are considered to be active, with 2065\% inhibition

K+ channel = conditions: 1 μM; norepinephrine-contracted RMA rings; cited from earlier work
[2] = Diuretic screen: 5 h net natriuretic efficacy (urinary Na+ excretion) in rats; assay type: in vivo, female Harlan Sprague-Dawley rats
[3] = Oryctolagus cuniculus, 0.25 h, Table III, inhibition of relaxation by pinacidil 1 μM at 15 min, mean ± sem (number of rings), >=65% considered active, <20% inactive, read-out: RMA K+ Channel Antagonism % I at 5 μM
[4] = Oryctolagus cuniculus, Table IV, lowest concentration giving >20% inhibition or lowest tested, read-out: RMA K+ Channel Antagonism % I (conc. μM)
[5] = Oryctolagus cuniculus, Table III footnote, read-out: RMA K+ channel antagonism, Percent inhibition at 0.5 μM
[6] = Oryctolagus cuniculus, Table III footnote, read-out: RMA K+ channel antagonism, Percent inhibition at 1 μM

COCC(NC(=NC#N)Nc1cccnc1)c1ccccc1 (centres unmarked) [Compound 16]
inhibition at 5 µM [1, 3]: 51.1 ± 11.6%

N#CN=C(Nc1cccnc1)NC(c1ccccc1)C1CC1 (centres unmarked) [Compound 17, N"-Cyano-N-(3-pyridyl)-N'-phenylcyclopropylmethylguanidine]
inhibition at 5 µM [1, 3]: 93.3 ± 2.2%

N#CN=C(Nc1ccc(N)nc1)NC1(c2cccc(F)c2)CCC1 [Compound 47]
inhibition at 0.05 µM [1, 4]: 79%

CC[C@@H](NC(=NC#N)Nc1ccc(N(C)C)nc1)c1ccccc1 [Compound 53, (R)-N"-Cyano-N'-(1-phenylpropyl)-N-[6-(dimethylamino)-3-pyridyl]guanidine]
inhibition at 5 µM [1, 4]: 4.1%

N#CN=C(Nc1cccnc1)NC1(c2ccccc2)CC1 [Compound 63]
inhibition at 5 µM [1, 4]: 86%

CC(NC(=NC#N)Nc1cccnc1)c1ccccc1 (racemic) [Compound 7, N"-Cyano-N-(3-pyridyl)-N'-(1-phenyl)ethylguanidine]
inhibition at 5 µM [1, 3]: 65.3 ± 10.2%

CC(C)Nc1ccc(NC(=NC#N)N[C@H](C)c2ccccc2)cn1 [Compound 59]
inhibition at 5 µM [1, 4]: 8.5%

N#CN=C(Nc1cccnc1)NC1(c2cccc(Br)c2)CCC1 [Compound 31]
inhibition at 0.05 µM [1, 4]: 50%

C[C@@H](NC(=NC#N)Nc1ccc(N(C)C)nc1)c1ccccc1 [Compound 35]
inhibition at 5 µM [1, 4]: 10.6%

CCC(NC(=NC#N)Nc1cccnc1)c1cccc(Cl)c1 (centres unmarked) [Compound 52]
inhibition at 0.5 µM [1, 4]: 94%

CC[C@H](NC(=NC#N)Nc1cccnc1)c1ccccc1 [Compound 20]
inhibition at 5 µM [1, 3]: 13.9 ± 7.2%

CCCC(NC(=NC#N)Nc1cccnc1)c1ccccc1 (centres unmarked) [Compound 28]
inhibition at 5 µM [1, 3]: 85.2 ± 4.8%

CC(NC(=NC#N)Nc1cccnc1)c1cc(F)cc(F)c1 (centres unmarked) [Compound 40]
inhibition at 0.5 µM [1, 4]: 55.5%

COCCCNc1ccc(NC(=NC#N)N[C@H](C)c2ccccc2)cn1 [Compound 57]
inhibition at 5 µM [1, 4]: 7.8%

CC(C)(C)C(NC(=NC#N)Nc1cccnc1)c1ccccc1 (centres unmarked) [Compound 13]
inhibition at 5 µM [1, 3]: 83.2 ± 12%
inhibition at 0.5 µM [1, 5]: 82 ± 1.8%

Cc1ccccc1C(C)NC(=NC#N)Nc1cccnc1 (centres unmarked) [Compound 14]
inhibition at 5 µM [1, 3]: 58.7 ± 8.3%

CCC(NC(=NC#N)Nc1cccnc1)c1cccc(F)c1 (centres unmarked) [Compound 38]
inhibition at 0.5 µM [1, 4]: 68.6%

N#CN=C(Nc1cccnc1)NC(c1ccccc1)C1CCCC1 (centres unmarked) [Compound 18]
inhibition at 5 µM [1, 3]: 88.1 ± 2%

N#CN=C(Nc1cccnc1)NC1(c2cccc(F)c2)CCC1 [Compound 42]
inhibition at 0.05 µM [1, 4]: 50%

CC(C)(NC(=NC#N)Nc1cccnc1)c1ccccc1 [Compound 9]
inhibition at 5 µM [1, 3]: 89.5 ± 3.6%

CC(NC(=NC#N)Nc1cccnc1)c1cc(Cl)ccc1Cl (centres unmarked) [Compound 24]
inhibition at 5 µM [1, 3]: 86.9 ± 4%

N#CN=C(Nc1cccnc1)NC1(c2ccccc2)CC=CC1 [Compound 3, N"-Cyano-N'-(1-phenylcyclopent-3-enyl)-N-(3-pyridyl)guanidine]
inhibition at 5 µM [1, 3]: 91%

N#CN=C(Nc1cccnc1)N[C@H](CO)c1ccccc1 [Compound 27]
inhibition at 5 µM [1, 3]: 92.5 ± 3.1%

CCC(NC(=NC#N)Nc1ccc(NC(C)=O)nc1)c1ccccc1 (centres unmarked) [Compound 30]
inhibition at 5 µM [1, 4]: 0%

CCC(NC(=NC#N)Nc1cccnc1)c1ccccc1 (centres unmarked) [Compound 2, N"-Cyano-N-(3-pyridyl)-N'-(1-phenyl)propylguanidine]
inhibition at 5 µM [1, 3]: 78.8 ± 3.9%
inhibition at 1 µM [1, 6]: 25.6 ± 17.2%

N#CN=C(Nc1cccnc1)NC1(c2ccccc2)CCC1 [Compound 51, N"-Cyano-N-(3-pyridyl)-N'-(1-phenylcyclobutyl)guanidine]
inhibition at 0.5 µM [1, 4]: 82.9%

CC(NC(=NC#N)Nc1cccnc1)c1ccc(Cl)c(Cl)c1 (centres unmarked) [Compound 23]
inhibition at 5 µM [1, 3]: 90.8 ± 2.8%

CCC(NC(=NC#N)Nc1ccc[n+]([O-])c1)c1ccccc1 (centres unmarked) [Compound 54, N"-Cyano-N'-(1-phenylpropyl)-N-(3-pyridyl)guanidine, pyridine N-oxide]
inhibition at 5 µM [1, 4]: 15.4%

N#CN=C(Nc1cccnc1)NC1(c2cccc(Cl)c2F)CCC1 [Compound 32]
inhibition at 0.05 µM [1, 4]: 66%

CC(NC(=NC#N)Nc1cccnc1)c1cccc(Cl)c1 (centres unmarked) [Compound 25]
inhibition at 5 µM [1, 3]: 89.9 ± 0.1%

CC(NC(=NC#N)Nc1cccnc1)c1cccc(F)c1 (centres unmarked) [Compound 50]
inhibition at 5 µM [1, 4]: 94.6%

C[C@@H](NC(=NC#N)Nc1ccc(Cl)nc1)c1ccccc1 [Compound 34]
inhibition at 1 µM [1, 4]: 49.5%

C[C@@H](NC(=NC#N)Nc1cccnc1)c1ccccc1 [Compound 1, (R)-N"-Cyano-N-(3-pyridyl)-N'-(1-phenyl)ethylguanidine]
inhibition at 5 µM [1, 3]: 86.3 ± 5%
inhibition at 1 µM [1, 6]: 17.1%
inhibition at 2.5 µM ([1]; Oryctolagus cuniculus, Table III footnote, 2.5 μM, read-out: RMA K+ channel antagonism, Percent inhibition at 2.5 μM): 88.9 ± 11.2%

CC(NC(=NC#N)Nc1cccnc1)c1cccc(F)c1F (centres unmarked) [Compound 58]
inhibition at 0.5 µM [1, 4]: 92.1%

CNc1ccc(NC(=NC#N)NC(C)c2ccccc2)cn1 (centres unmarked) [Compound 29]
inhibition at 5 µM [1, 4]: 63.4%

C[C@@H](NC(=NC#N)Nc1ccc[n+]([O-])c1)c1ccccc1 [Compound 55, (R)-N"-Cyano-N'-(1-phenylethyl)-N-(3-pyridyl)guanidine, pyridine N-oxide]
inhibition at 5 µM [1, 4]: 16.3%

C[C@H](NC(=NC#N)Nc1cccnc1)c1ccccc1 [Compound 8]
inhibition at 5 µM [1, 3]: 22.1 ± 21.2%

CCC(NC(=NC#N)Nc1cccnc1)c1cccc(I)c1 (centres unmarked) [Compound 41]
inhibition at 5 µM [1, 4]: 90.1%

CC(NC(=NC#N)Nc1ccc(N)nc1)c1ccccc1 (centres unmarked) [Compound 36]
RMA K+ Channel Antagonism % I (conc. μM) ([1]; Table IV, concentration not printed (empty parentheses)): 66.5%

N#CN=C(Nc1ccc(N)nc1)NC1(c2ccccc2)CCC1 [Compound 46, N"-Cyano-N-(6-amino-3-pyridyl)-N'-(1-phenylcyclobutyl)guanidine]
inhibition at 0.5 µM [1, 4]: 45%

N#CN=C(Nc1cccnc1)NC(c1ccccc1)C1CCC1 (centres unmarked) [Compound 19]
inhibition at 5 µM [1, 3]: 96 ± 2.1%

N#CN=C(Nc1cccnc1)NC1(c2ccccc2)CCCCC1 [Compound 10]
inhibition at 5 µM [1, 3]: 85.5 ± 2.2%

CCN(CC)c1ccc(NC(=NC#N)N[C@H](C)c2ccccc2)cn1 [Compound 33]
inhibition at 5 µM [1, 4]: 10.8%

N#CN=C(Nc1cccnc1)N[C@@H](CO)c1ccccc1 [Compound 4, (R)-N"-Cyano-N'-(2-hydroxy-1-phenylethyl)-N-(3-pyridyl)guanidine]
inhibition at 5 µM [1, 3]: 2.6 ± 1.7%

CCNc1ccc(NC(=NC#N)N[C@H](C)c2ccccc2)cn1 [Compound 56]
inhibition at 5 µM [1, 4]: 19.1%

CCC(NC(=NC#N)Nc1cccnc1)c1cccc(Br)c1 (centres unmarked) [Compound 39]
inhibition at 0.5 µM [1, 4]: 87.2%

CCC(NC(=NC#N)Nc1cccnc1)c1ccccc1F (centres unmarked) [Compound 43]
inhibition at 0.05 µM [1, 4]: 30%

CC[C@@H](NC(=NC#N)Nc1ccc(N)nc1)c1ccccc1 [Compound 44, (R)-N-(6-Amino-3-pyridyl)-N"-cyano-N'-(1-phenylpropyl)guanidine]
inhibition at 5 µM [1, 4]: 60%

Cc1cccc(C(C)NC(=NC#N)Nc2cccnc2)c1 (centres unmarked) [Compound 15]
inhibition at 5 µM [1, 3]: 82 ± 3.9%

N#CN=C(Nc1cccnc1)NC1(c2cccc(Cl)c2)CCC1 [Compound 45, N'-[1-(3-Chlorophenyl)cyclobutyl]-N"-cyano-N-(3-pyridyl)guanidine]
inhibition at 0.05 µM [1, 4]: 91%

CC(N/C(=N\C#N)Nc1ccncc1)C(C)(C)C (centres unmarked) [Pinacidil]
K+ channel dependent vasodilation (in words) (K+ channel): maximal K^+ channel dependent vasodilation
inhibition at 5 µM [1, 3]: 0%
diuretic response (in words) ([2]; 5 mg/kg oral dosage): Antidiuresis
5 h Net Natriuretic Efficacy ([2]; Table III, 5 mg/kg oral dosage (footnote j)): -60 μEq Na+/mg/kg

N#CN=C(Nc1cccnc1)NC1(c2ccccc2)CCCC1 [Compound 11]
inhibition at 5 µM [1, 3]: 90.4 ± 2.3%
inhibition at 0.5 µM [1, 5]: 78.8 ± 4.4%

CC[C@@H](NC(=NC#N)Nc1cccnc1)c1ccccc1 [Compound 22, (R) N"-Cyano-N-(3-pyridyl)-N'-(1-phenylpropyl)guanidine]
inhibition at 5 µM [1, 3]: 89 ± 3.2%
inhibition at 0.1 µM ([1]; Oryctolagus cuniculus, Table III footnote, 0.1 μM, read-out: RMA K+ channel antagonism, Percent inhibition at 0.1 μM): 5 ± 2%
inhibition at 0.25 µM ([1]; Oryctolagus cuniculus, Table III footnote, 0.25 μM, read-out: RMA K+ channel antagonism, Percent inhibition at 0.25 μM): 52 ± 1%
inhibition at 0.5 µM [1, 5]: 81.5 ± 5.9%

N#CN=C(Nc1cccnc1)NC1(c2cccc(F)c2F)CCC1 [Compound 48]
inhibition at 0.05 µM [1, 4]: 45%

CC(NC(=NC#N)Nc1cccnc1)c1ccccc1Cl (centres unmarked) [Compound 26]
inhibition at 5 µM [1, 3]: 74.7 ± 2.7%

CN(C)c1ccc(NC(=NC#N)N[C@H](CO)c2ccccc2)cn1 [Compound 37]
inhibition at 5 µM [1, 4]: 6.6%

CC(C)C(NC(=NC#N)Nc1cccnc1)c1ccccc1 (centres unmarked) [Compound 12]
inhibition at 5 µM [1, 3]: 85.5 ± 0.6%
inhibition at 0.5 µM [1, 5]: 43.6%
inhibition at 1 µM [1, 6]: 78.2 ± 1.9%

CC(NC(=NC#N)Nc1cccnc1)c1cccc(C(F)(F)F)c1 (centres unmarked) [Compound 21]
inhibition at 5 µM [1, 3]: 85.3 ± 3.2%
